Laboratory results as given in paper PMC5643462, “Encrypted Antimicrobial Peptides from Plant Proteins” (Scientific Reports, 2017).
In brackets after ≈: the same amount, converted by molar mass. No end group written: not given here.

Legend:
Escherichia coli [1] = experiment: Microbicidal activity (minimal killing concentration), plating on agar; format: cell-based, Escherichia coli ATCC 25922; settings: 10 µL of MIC and raising concentrations up to 256 µM plated on Mueller-Hinton agar; 37 °C, 24 h; no growth; mean ± SD, 3 biological replicates
Experimental: (§1) The microbicidal activity of the IAPS was also evaluated. […] YPD agar and Mueller-Hinton agar were used for fungi/yeasts and bacteria, respectively. Meanwhile, susceptibility microplates were incubated again to evaluate if there would be any growing after a longer period. For both approaches, the minimal killing concentration (MKC) was defined as the concentration that no growth was observed after incubation. Three biological replicates were performed for each test.
(§2) Supplementary Material 07, Table S5
(§3) Table S5. Microorganisms and growth conditions.
(§4) Microorganisms Incubation Incubation Starting cell Growth Medium

Xanthomonas campestris [2] = experiment: as above; format: cell-based, Xanthomonas campestris pv. citri; settings: 10 µL of MIC and raising concentrations up to 256 µM plated on Mueller-Hinton agar; 28 °C, 24 h; no growth; mean ± SD, 3 biological replicates
Experimental: as §1, §2, §3, §4
(§5) Temperature (°C) Time (h) concentration
(§6) Erwinia carotovora 28 24 5.0 x 10 5 Mueller -Hinton
(§7) Xanthomonas campestris pv. citri 28 24 5.0 x 10 5 Mueller -Hinton
(§8) Pseudomonas syringae pv. tabaci 28 24 5.0 x 10 5 Mueller -Hinton

Bacillus subtilis [3] = experiment: as above; format: cell-based, Bacillus subtilis ATCC 23857; settings: 10 µL of MIC and raising concentrations up to 256 µM plated on Mueller-Hinton agar; 37 °C, 24 h; no growth; mean ± SD, 3 biological replicates
Experimental: as §1, §2, §3, §4

Staphylococcus aureus [4] = experiment: as above; format: cell-based, Staphylococcus aureus ATCC 25923; settings: 10 µL of MIC and raising concentrations up to 256 µM plated on Mueller-Hinton agar; 37 °C, 24 h; no growth; mean ± SD, 3 biological replicates
Experimental: as §1, §2, §3, §4, §5, §6, §7, §8

Xanthomonas campestris [5] = experiment: microbe, parasite or virus in culture; settings: 24 h
Experimental: (§9) The susceptibility test of microorganisms was performed to evaluate the inhibitory activity of the IAPs. Protocols M7-A10[50], M27-A3[51] and M38-A2[52] from Clinical & Laboratory Standards Institute (CLSI) were used for bacteria, yeasts and filamentous fungi tests, respectively. Briefly, different concentration of IAPs (256-0.5 µM) were tested against 16 microorganisms, in a final volume of 100 µL. Media conditions, final cell concentration and incubation conditions are presented in Supplementary Material 07, Table S5. Three biological repetitions, with 2 technical replicates each, were performed for each test, on polystyrene flat-bottom 96 wells microplates. The minimum inhibitory concentration (MIC) was defined as the concentration that no cells/hyphae were detected when visualized by optical microscopy.
as §2, §3

Bacillus subtilis [6] = experiment: microbe, parasite or virus in culture
Experimental: as §9, §2, §3

Erwinia carotovora [7] = experiment: microbe, parasite or virus in culture; settings: 24 h
Experimental: as §9, §2, §3

Escherichia coli [8] = experiment: microbe, parasite or virus in culture
Experimental: as §9, §2, §3

Bacillus cereus [9] = experiment: microbe, parasite or virus in culture
Experimental: as §9, §2, §3

[10] = tested on: Pseudomonas syringae pv. tabaci; experiment: microbe, parasite or virus in culture; settings: 24 h
Experimental: as §9, §2, §3

Pseudomonas aeruginosa [11] = experiment: microbe, parasite or virus in culture; settings: Pseudomonas aeruginosa, ATCC27853, 24 h, read-out: Minimum inhibitory concentration, Pseudomonas aeruginosa
Experimental: as §9, §2, §3

Staphylococcus aureus [12] = experiment: microbe, parasite or virus in culture
Experimental: as §9, §2, §3

Bacillus cereus [13] = experiment: Microbicidal activity (minimal killing concentration), plating on agar; format: cell-based, Bacillus cereus ATCC 14579; settings: 10 µL of MIC and raising concentrations up to 256 µM plated on Mueller-Hinton agar; 37 °C, 24 h; no growth; mean ± SD, 3 biological replicates
Experimental: as §1, §2, §3, §4

Pseudomonas aeruginosa [14] = experiment: as above; format: cell-based, Pseudomonas aeruginosa ATCC 27853; settings: 10 µL of MIC and raising concentrations up to 256 µM plated on Mueller-Hinton agar; 37 °C, 24 h; no growth; mean ± SD, 3 biological replicates
Experimental: as §1, §2, §3, §4

Erwinia carotovora [15] = experiment: as above; format: cell-based; settings: 10 µL of MIC and raising concentrations up to 256 µM plated on Mueller-Hinton agar; 28 °C, 24 h; no growth; mean ± SD, 3 biological replicates
Experimental: as §1, §2, §3, §4, §5, §6, §7, §8

[16] = tested on: Pseudomonas syringae pv. tabaci; experiment: as above; format: cell-based; settings: 10 µL of MIC and raising concentrations up to 256 µM plated on Mueller-Hinton agar; 28 °C, 24 h; no growth; mean ± SD, 3 biological replicates
Experimental: as §1, §2, §3, §4, §5, §6, §7, §8

[17] = tested on: Fusarium oxysporum f.sp. vasinfectum; settings: RPMI 1640 pH 7.0; 28 °C, 72 h; start 2.5 x 10 3; 256-0.5 µM; mean ± SD of 3 biological repetitions (SD 0 not displayed); N/A = no antimicrobial activity observed
Experimental: as §9, §2, §3

Fusarium solani = settings: RPMI 1640 pH 7.0; 28 °C, 48 h; start 2.5 x 10 3; 256-0.5 µM; mean ± SD of 3 biological repetitions (SD 0 not displayed); N/A = no antimicrobial activity observed
Experimental: as §9, §2, §3

Rhizoctonia solani = settings: RPMI 1640 pH 7.0; 28 °C, 48 h; start 2.5 x 10 3; 256-0.5 µM; mean ± SD of 3 biological repetitions (SD 0 not displayed); N/A = no antimicrobial activity observed
Experimental: as §9, §2, §3

human red blood cells = experiment: Cytotoxicity: hemolysis of human red blood cells; format: cell-based; settings: SC50 = IAP concentration that at least 50% of red blood cells remain intact; 128 µM–0.5 µM tested; PBS, 30 minutes, 37 °C; absorbance 540 nm
Experimental: The cytotoxicity of the selected IAPS was performed using human red blood cells in strict accordance with relevant guidelines and regulations (Ethical committee – UnB # 1.939.989). Different concentrations of IAPs (128 µM–0.5 µM) were incubated with a final concentration of 2.5 × 10^5 red blood cells.mL^−1. Briefly, 100 µL of red blood cells was incubated with 100 µL of different concentrations of each IAP, prepared in PBS, for 30 minutes at 37 °C, with constant shaking at 120 rpm. PBS and Triton X-100 0.1% (v/v) were used as negative and positive controls, respectively. After incubation, the solution was centrifuged at 900 × g for five minutes followed by transferring 50 µL of the supernatant to flat-bottom polystyrene 96-well micro plates containing 50 µL of PBS. Microplate reading was performed at a BioTek Multireader, using a wavelength of 540 nm. All tests were performed in 3 biological replicates, composed of 3 biological repetitions each. The obtained data was subtracted by the negative control and relative to the positive control, defined as 100% lysis.

Ramularia areola = experiment: microbe, parasite or virus in culture; settings: RPMI 1640 pH 7.0; 25 °C, 120 h; start 2.5 x 10 3; 256-0.5 µM; mean ± SD of 3 biological repetitions (SD 0 not displayed); N/A = no antimicrobial activity observed
Experimental: as §9, §2, §3

Cryptococcus neoformans = experiment: microbe, parasite or virus in culture; settings: ATCC 28957; RPMI 1640 pH 7.0; 37 °C, 72 h; start 2.5 x 10^3 cells; 256-0.5 µM; mean ± SD of 3 biological repetitions (SD 0 not displayed); N/A = no antimicrobial activity observed
Experimental: as §9, §2, §3

Trichoderma asperellum = experiment: microbe, parasite or virus in culture; settings: RPMI 1640 pH 7.0; 28 °C, 48 h; start 2.5 x 10 3; 256-0.5 µM; mean ± SD of 3 biological repetitions (SD 0 not displayed); N/A = no antimicrobial activity observed
Experimental: as §9, §2, §3

Fusarium oxysporum = experiment: microbe, parasite or virus in culture; settings: RPMI 1640 pH 7.0; 28 °C, 48 h; start 2.5 x 10 3; 256-0.5 µM; mean ± SD of 3 biological repetitions (SD 0 not displayed); N/A = no antimicrobial activity observed
Experimental: as §9, §2, §3

Candida albicans = experiment: microbe, parasite or virus in culture; settings: ATCC 90028; RPMI 1640 pH 7.0; 37 °C, 48 h; start 2.5 x 10^3 cells; 256-0.5 µM; mean ± SD of 3 biological repetitions (SD 0 not displayed); no cells seen by optical microscopy; N/A = no antimicrobial activity observed
Experimental: as §9, §2, §3

[18] = Mueller-Hinton, 28 °C, start 5.0 x 10^5 cells, 256-0.5 µM, mean ± SD of 3 biological repetitions (SD 0 not displayed), N/A = no antimicrobial activity observed

## CNC(C)C1CCC(N)C(OC2C(N)CC(N)C(OC3OCC(C)(O)C(NC)C3O)C2O)O1 (centres unmarked) [Gentamicin]
Escherichia coli [1]
  Minimum microbicidal concentration, Escherichia coli: 0.52 ± 0.0 µM
Xanthomonas campestris [2]
  Minimum microbicidal concentration, Xanthomonas campestris: 0.53 ± 0.0 µM
Bacillus subtilis [3]
  Minimum microbicidal concentration, Bacillus subtilis: 0.033 ± 0.0 µM
Staphylococcus aureus [4]
  Minimum microbicidal concentration, Staphylococcus aureus: 0.52 ± 0.0 µM
Xanthomonas campestris [5]; Xanthomonas campestris, read-out: Minimum inhibitory concentration, Xanthomonas campestris
  MIC: 0.53 µM (≈ 0.253 µg/mL)
Bacillus subtilis [6]; Bacillus subtilis, ATCC23857, 24 h, read-out: Minimum inhibitory concentration, Bacillus subtilis
  MIC: 0.033 µM (≈ 0.0158 µg/mL)
Erwinia carotovora [7]; Pectobacterium carotovorum, read-out: Minimum inhibitory concentration, Erwinia carotovora
  MIC: 0.53 µM (≈ 0.253 µg/mL)
Escherichia coli [8]; Escherichia coli, ATCC25922, 24 h, read-out: Minimum inhibitory concentration, Escherichia coli
  MIC: 0.52 µM (≈ 0.248 µg/mL)
Bacillus cereus [9]; Bacillus cereus, ATCC14579, 24 h, read-out: Minimum inhibitory concentration, Bacillus cereus
  MIC: 8.37 µM (≈ 4 µg/mL)
[10]; Pseudomonas syringae, read-out: Minimum inhibitory concentration, Pseudomonas syringae pv. tabaci
  MIC: 0.52 µM (≈ 0.248 µg/mL)
Pseudomonas aeruginosa [11]
  MIC: 0.13 µM (≈ 0.0621 µg/mL)
Staphylococcus aureus [12]; Staphylococcus aureus, ATCC25923, 24 h, read-out: Minimum inhibitory concentration, Staphylococcus aureus
  MIC: 0.26 µM (≈ 0.124 µg/mL)
Bacillus cereus [13]
  Minimum microbicidal concentration, Bacillus cereus: 8.37 ± 0.0 µM
Pseudomonas aeruginosa [14]
  Minimum microbicidal concentration, Pseudomonas aeruginosa: 0.52 ± 0.0 µM
Erwinia carotovora [15]
  Minimum microbicidal concentration, Erwinia carotovora: 0.53 ± 0.0 µM
[16]
  Minimum microbicidal concentration, Pseudomonas syringae pv. tabaci: 0.52 ± 0.0 µM

## FFGHIWHGARTLFRDVFA-NH2 [Cs02]
[17]
  Minimum inhibitory concentration, Fusarium oxysporum f.sp. vasinfectum: 13.33 ± 4.61 µM
Fusarium solani
  Minimum inhibitory concentration, Fusarium solani: 8.0 µM
Rhizoctonia solani
  Minimum inhibitory concentration, Rhizoctonia solani: 32.0 µM
Human red blood cells
  Hemolytic activity of human red blood cells (%) SC50: >128 µM
Xanthomonas campestris [5]; pv. citri, Mueller-Hinton, 28 °C, start 5.0 x 10^5 cells, 256-0.5 µM, mean ± SD of 3 biological repetitions (SD 0 not displayed), N/A = no antimicrobial activity observed
  Minimum inhibitory concentration, Xanthomonas campestris: 32.0 µM
Bacillus subtilis [6]; ATCC 23857, Mueller-Hinton, 37 °C, 24 h, start 5.0 x 10^5 cells, 256-0.5 µM, mean ± SD of 3 biological repetitions (SD 0 not displayed), N/A = no antimicrobial activity observed
  Minimum inhibitory concentration, Bacillus subtilis: 3.33 ± 1.15 µM
Ramularia areola
  Minimum inhibitory concentration, Ramularia areola: 16.0 µM
Erwinia carotovora [7]; [18]
  Minimum inhibitory concentration, Erwinia carotovora: 32.0 µM
Escherichia coli [8]; ATCC 25922, Mueller-Hinton, 37 °C, 24 h, start 5.0 x 10^5 cells, 256-0.5 µM, mean ± SD of 3 biological repetitions (SD 0 not displayed), N/A = no antimicrobial activity observed
  Minimum inhibitory concentration, Escherichia coli: 8.0 µM
Bacillus cereus [9]; ATCC 14579, Mueller-Hinton, 37 °C, 24 h, start 5.0 x 10^5 cells, 256-0.5 µM, mean ± SD of 3 biological repetitions (SD 0 not displayed), N/A = no antimicrobial activity observed
  Minimum inhibitory concentration, Bacillus cereus: 64.0 µM
Cryptococcus neoformans
  Minimum inhibitory concentration, Cryptococcus neoformans: 32.0 µM
[10]; [18]
  Minimum inhibitory concentration, Pseudomonas syringae pv. tabaci: 4.0 µM
Trichoderma asperellum
  Minimum inhibitory concentration, Trichoderma asperellum: 8.0 µM
Staphylococcus aureus [12]; ATCC 25923, Mueller-Hinton, 37 °C, 24 h, start 5.0 x 10^5 cells, 256-0.5 µM, mean ± SD of 3 biological repetitions (SD 0 not displayed), N/A = no antimicrobial activity observed
  Minimum inhibitory concentration, Staphylococcus aureus: 8.0 µM
Fusarium oxysporum
  Minimum inhibitory concentration, Fusarium oxysporum: 16.0 µM
Candida albicans
  Minimum inhibitory concentration, Candida albicans: 32.0 µM
